# The supplement of paper PMC10307832
# Legend:
# [1] = compound: CC(C)(C)c1cc(NC(=O)Nc2ccc(-c3cn4c(n3)sc3cc(OCCN5CCOCC5)ccc34)cc2)no1 [Quizartinib] + CC(=O)Nc1cccc(-n2c(=O)n(C3CC3)c(=O)c3c(Nc4ccc(I)cc4F)n(C)c(=O)c(C)c32)c1 [Trametinib] (partner 0.02 µM); assay: relative viability (nuclei count vs DMSO), 5 days (fraction); higher = more cells survive
# In short: (§1)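 Lung cancer cell lines were seeded in 1536-well plates and dosed by pin tool the next day, with either a single drug or a fixed anchor-drug dose combined with five library-drug doses (not always all listed) spaced in √10 steps. Five days later, one step fixed the cells and stained their nuclei (final 0.05% Triton X-100, 1% formaldehyde, 1 ug/ml Hoechst), and nuclei were counted on 4× images. Relative viability is the nuclei count in treated wells divided by the count in vehicle wells, and each value is the median of duplicate plates.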
# [2] = compound: CC(C)(C)c1cc(NC(=O)Nc2ccc(-c3cn4c(n3)sc3cc(OCCN5CCOCC5)ccc34)cc2)no1 [Quizartinib] + NC(=O)Nc1cc(-c2cccc(F)c2)sc1C(=O)N[C@H]1CCCNC1 [AZD7762] (partner 0.2 µM); assay: as above
# In short: as §1
Cell Line,relative viability ([1]; first compound 0.001 µM),relative viability ([1]; first compound 0.003162 µM),relative viability ([1]; first compound 0.01 µM),relative viability ([1]; first compound 0.03162 µM),relative viability ([1]; first compound 0.1 µM),relative viability ([2]; first compound 0.001 µM),relative viability ([2]; first compound 0.003162 µM),relative viability ([2]; first compound 0.01 µM),relative viability ([2]; first compound 0.03162 µM),relative viability ([2]; first compound 0.1 µM)
UMC-11,0.417,0.722,0.714,0.728,0.644,,,,,
NCI-H1355,0.411,0.43,0.444,0.423,0.357,0.715,0.828,0.622,0.835,0.736
NCI-H2228,0.513,0.593,0.484,0.436,0.511,,,,,
NCI-H2170,0.868,0.907,0.92,1.01,0.947,0.906,0.848,0.914,0.973,1.03
NCI-H727,0.424,0.355,0.366,0.397,0.429,0.667,0.545,0.564,0.457,0.759
NCI-H460,,0.152,0.104,,0.0587,,0.591,0.648,0.544,0.621
NCI-H647,0.43,0.387,0.508,0.434,0.396,0.39,0.651,0.422,0.325,0.566
NCI-H358,0.146,0.146,0.11,,0.129,0.578,0.448,0.555,,0.5
HOP-62,0.33,0.367,0.399,0.383,0.304,0.639,0.529,0.554,0.688,0.463
HCC-44,0.892,1.05,1.03,1.05,1.03,0.976,1.04,0.988,1.02,1.02
NCI-H1993,0.445,0.46,0.576,0.619,0.527,0.759,0.699,0.87,0.672,0.914
A-427,0.517,0.691,0.675,0.591,0.704,0.467,0.676,0.722,0.639,0.718
COR-L23,0.518,0.552,0.595,0.479,0.543,,,,,
NCI-H2023,0.643,0.504,0.533,,0.615,,,,,
NCI-H661,0.575,0.533,0.554,0.552,0.525,,,,,
NCI-H322M,0.482,0.536,0.617,0.504,0.536,0.531,0.56,0.557,0.531,0.705
NCI-H838,0.516,0.515,0.466,0.514,0.367,0.769,0.925,1.04,0.859,0.902
NCI-H23,0.353,0.346,0.456,0.43,0.312,0.302,0.173,0.277,0.195,0.25
LOU-NH91,0.425,0.756,0.817,0.786,0.826,0.749,0.768,0.739,0.722,0.827
